Like-named read-outs stand apart in the source and are kept apart here.
Test system: wild‐type BCG cells
Assay type: cell-based, M. bovis BCG
Settings: for Mean_Ratio GDI5755_3d: DMSO_3d: Table S6; for Mean Ratio: GDI5755_2d vs DMSO_2d; for Mean Ratio / Mean Ratio (GDI5755_2d vs DMSO_2d): up-regulated; for Mean_Ratio (GDI5755_3d vs DMSO_3d): down-regulated, 3 d; for Mean Ratio (GDI5755_2d vs DMSO_2d): 2d

Question: O=C(Oc1ccc(Cl)cc1)c1ccc(N2CCOCC2)c([N+](=O)[O-])c1 [GDI‐5755] was tested. Which “Mean_Ratio GDI5755_3d: DMSO_3d” value (BCG_1101c Serine protease) did it give?
Answer: The value was 1.4.

Question: What about the “Mean_Ratio GDI5755_3d: DMSO_3d” value (BCG_1189c HNH nuclease domain-containing protein) of the same compound?
Answer: Its value is 1.3.

Question: And the “Mean_Ratio GDI5755_3d: DMSO_3d” value (BCG_1283 Probable serine protease htrA)?
Answer: Its value is 1.3.

Question: And the “Mean_Ratio GDI5755_3d: DMSO_3d” value (BCG_1324 Uncharacterized protein)?
Answer: The value was 1.3.

Question: What about the “Mean_Ratio GDI5755_3d: DMSO_3d” value (BCG_1333 Lipoprotein lprB) of the same compound?
Answer: Its value is 1.3.

Question: What about the “Mean_Ratio GDI5755_3d: DMSO_3d” value (BCG_1334 Lipoprotein lprC) of the same compound?
Answer: Its value is 1.3.

Question: And the “Mean_Ratio GDI5755_3d: DMSO_3d” value (BCG_1438c Transferase)?
Answer: The value was 1.3.

Question: What about the “Mean_Ratio GDI5755_3d: DMSO_3d” value (BCG_1471c Probable triacylglyceride transporter) of the same compound?
Answer: Its value is 1.3.

Question: And the “Mean_Ratio GDI5755_3d: DMSO_3d” value (BCG_1492 Conserved membrane protein)?
Answer: The value was 1.3.

Question: What about the “Mean_Ratio GDI5755_3d: DMSO_3d” value (BCG_1523 Fe-S cluster assembly protein SufD) of the same compound?
Answer: The value was 1.3.

Question: And the “Mean_Ratio GDI5755_3d: DMSO_3d” value (BCG_1532 Thioredoxin)?
Answer: The value was 1.3.

Question: What about the “Mean_Ratio GDI5755_3d: DMSO_3d” value (BCG_1543 UPF0353 protein) of the same compound?
Answer: Its value is 1.3.

Question: What about the “Mean_Ratio GDI5755_3d: DMSO_3d” value (BCG_1787 DUF4129 domain-containing protein) of the same compound?
Answer: Its value is 1.4.

Question: And the “Mean_Ratio GDI5755_3d: DMSO_3d” value (BCG_1890c NADH dehydrogenase ndh)?
Answer: Its value is 1.5.

Question: And the “Mean_Ratio GDI5755_3d: DMSO_3d” value (BCG_1937 Thiamine-binding protein-containing protein)?
Answer: Its value is 1.3.

Question: And the “Mean_Ratio GDI5755_3d: DMSO_3d” value (BCG_1984 HNH nuclease domain-containing protein)?
Answer: Its value is 1.3.

Question: And the “Mean_Ratio GDI5755_3d: DMSO_3d” value (BCG_2183c Transcriptional regulator MraZ)?
Answer: Its value is 1.3.

Question: And the “Mean_Ratio GDI5755_3d: DMSO_3d” value (BCG_2241c Serine protease Hip1)?
Answer: The value was 1.3.

Question: And the “Mean_Ratio GDI5755_3d: DMSO_3d” value (BCG_2351c Probable lipoprotein lppP)?
Answer: Its value is 1.3.

Question: What about the “Mean_Ratio GDI5755_3d: DMSO_3d” value (BCG_2486c DSBA-like thioredoxin domain-containing protein) of the same compound?
Answer: The value was 1.7.

Question: What about the “Mean_Ratio GDI5755_3d: DMSO_3d” value (BCG_2516c pyruvate dehydrogenase E1 component pdhB) of the same compound?
Answer: Its value is 1.3.

Question: And the “Mean_Ratio GDI5755_3d: DMSO_3d” value (BCG_2656 Uncharacterized protein)?
Answer: The value was 1.4.

Question: What about the “Mean_Ratio GDI5755_3d: DMSO_3d” value (BCG_2721c DUF3039 domain-containing protein) of the same compound?
Answer: Its value is 1.4.

Question: What about the “Mean_Ratio GDI5755_3d: DMSO_3d” value (BCG_2723 RNA polymerase sigma factor, sigB) of the same compound?
Answer: Its value is 1.3.

Question: And the “Mean_Ratio GDI5755_3d: DMSO_3d” value (BCG_2934c Possible D-amino acid aminohydrolase)?
Answer: Its value is 1.4.

Question: And the “Mean_Ratio GDI5755_3d: DMSO_3d” value (BCG_3028 conserved lipoprotein lppZ)?
Answer: The value was 1.3.

Question: What about the “Mean_Ratio GDI5755_3d: DMSO_3d” value (BCG_3153c Diacylglycerol O-acyltransferase) of the same compound?
Answer: The value was 1.4.

Question: What about the “Mean_Ratio GDI5755_3d: DMSO_3d” value (BCG_3164 Probable NADPH quinone oxidoreductase fadB4) of the same compound?
Answer: Its value is 1.2.

Question: And the “Mean_Ratio GDI5755_3d: DMSO_3d” value (BCG_3165c Uncharacterized protein)?
Answer: Its value is 1.3.

Question: What about the “Mean_Ratio GDI5755_3d: DMSO_3d” value (BCG_3185c Dioxygenase) of the same compound?
Answer: The value was 2.2.

Question: And the “Mean_Ratio GDI5755_3d: DMSO_3d” value (BCG_3269c Protein translocase subunit SecA 1)?
Answer: The value was 1.2.

Question: And the “Mean_Ratio GDI5755_3d: DMSO_3d” value (BCG_3476 Probable dioxygenase)?
Answer: The value was 1.6.

Question: And the “Mean_Ratio GDI5755_3d: DMSO_3d” value (BCG_3583 Acetoacetate decarboxylase)?
Answer: The value was 1.3.

Question: And the “Mean_Ratio GDI5755_3d: DMSO_3d” value (BCG_3590 Rieske-type oxygenase)?
Answer: Its value is 1.4.

Question: What about the “Mean_Ratio GDI5755_3d: DMSO_3d” value (BCG_3674c ATP-dependent zinc metalloprotease FtsH) of the same compound?
Answer: The value was 1.3.

Question: And the “Mean_Ratio GDI5755_3d: DMSO_3d” value (BCG_3709 Rv3651-like N-terminal domain-containing protein)?
Answer: Its value is 1.3.

Question: What about the “Mean_Ratio GDI5755_3d: DMSO_3d” value (BCG_3824c Two-component transcriptional regulator TcrX) of the same compound?
Answer: Its value is 1.4.

Question: And the “Mean_Ratio GDI5755_3d: DMSO_3d” value (BCG_3881 Uncharacterized protein)?
Answer: Its value is 1.4.

Question: And the “Mean_Ratio GDI5755_3d: DMSO_3d” value (BCG_3905c Glycerol phosphoryl diester phosphodiesterase glpQ1)?
Answer: Its value is 1.3.

Question: What about the “Mean_Ratio (GDI5755_2d vs DMSO_2d), protein L-serine dehydratase” value (iTRAQ protein abundance ratio, 2 d treatment vs DMSO, sheet down-regulated, Protein_ID A0A0H3M0L9, Pvalue 5.14E-04) of the same compound?
Answer: Its value is 0.80.

Question: And the “Mean_Ratio (GDI5755_2d vs DMSO_2d), protein Endonuclease NucS” value (iTRAQ protein abundance ratio, 2 d treatment vs DMSO, sheet down-regulated, Protein_ID A0A0H3M5R4, Pvalue 4.43E-04)?
Answer: The value was 0.80.

Question: What about the “Mean_Ratio (GDI5755_2d vs DMSO_2d), protein Trehalose 2-sulfotransferase” value (iTRAQ protein abundance ratio, 2 d treatment vs DMSO, sheet down-regulated, Protein_ID A0A0H3M7Q0, Pvalue 1.60E-03) of the same compound?
Answer: The value was 0.80.

Question: And the “Mean_Ratio (GDI5755_2d vs DMSO_2d), protein DUF3263 domain-containing protein” value (iTRAQ protein abundance ratio, 2 d treatment vs DMSO, sheet down-regulated, Protein_ID A0A0H3M274, Pvalue 5.23E-03)?
Answer: The value was 0.80.

Question: And the “Mean_Ratio (GDI5755_2d vs DMSO_2d), protein Translation initiation factor IF-3” value (iTRAQ protein abundance ratio, 2 d treatment vs DMSO, sheet down-regulated, Protein_ID A0A0H3MDG6, Pvalue 1.81E-05)?
Answer: The value was 0.80.

Question: And the “Mean_Ratio (GDI5755_2d vs DMSO_2d), protein Possible conserved membrane or exported protein” value (iTRAQ protein abundance ratio, 2 d treatment vs DMSO, sheet down-regulated, Protein_ID A0A0H3MDQ9, Pvalue 5.91E-05)?
Answer: Its value is 0.80.

Question: What about the “Mean_Ratio (GDI5755_2d vs DMSO_2d), protein Large ribosomal subunit protein uL22” value (iTRAQ protein abundance ratio, 2 d treatment vs DMSO, sheet down-regulated, Protein_ID A1KGI7, Pvalue 5.54E-04) of the same compound?
Answer: Its value is 0.80.

Question: What about the “Mean_Ratio (GDI5755_2d vs DMSO_2d), protein ATP-dependent Clp protease ATP-binding subunit ClpX” value (iTRAQ protein abundance ratio, 2 d treatment vs DMSO, sheet down-regulated, Protein_ID A1KLF3, Pvalue 2.57E-03) of the same compound?
Answer: The value was 0.80.

Question: What about the “Mean Ratio” value (protein A0A0G2Q9F2 Ribonuclease P protein component) of the same compound?
Answer: The value was 1.26.

Question: And the “Mean_Ratio (GDI5755_3d vs DMSO_3d)” value (protein A0A0G2Q9J9, BCG_3329c (Rv3300c), Pseudouridine synthase RsuA/RluA-like domain-containing protein)?
Answer: The value was 0.7.

Question: What about the “Mean_Ratio (GDI5755_3d vs DMSO_3d)” value (protein A0A0G2Q9N9, BCG_0021 (Rv3915), N-acetylmuramoyl-L-alanine amidase CwlM) of the same compound?
Answer: Its value is 0.7.

Question: And the “Mean Ratio” value (protein A0A0H3M0K6 Probable conserved transmembrane protein)?
Answer: Its value is 1.32.

Question: And the “Mean Ratio” value (protein A0A0H3M0R3 Secreted antigen 85-c fbpC (85C))?
Answer: Its value is 1.28.

Question: What about the “Mean Ratio (GDI5755_2d vs DMSO_2d)” value (protein A0A0H3M1A8 Isoniazid inductible gene protein iniC) of the same compound?
Answer: Its value is 1.34.

Question: What about the “Mean_Ratio (GDI5755_3d vs DMSO_3d)” value (protein A0A0H3M1E3, BCG_0162 (Rv0128), Probable conserved transmembrane protein) of the same compound?
Answer: Its value is 0.7.

Question: What about the “Mean Ratio (GDI5755_2d vs DMSO_2d)” value (protein A0A0H3M1F5 DUF427 domain-containing protein) of the same compound?
Answer: Its value is 1.39.

Question: And the “Mean Ratio” value (protein A0A0H3M1G0 Possible conserved lipoprotein lpqK)?
Answer: The value was 1.28.

Question: What about the “Mean_Ratio (GDI5755_3d vs DMSO_3d)” value (protein A0A0H3M1I3, BCG_0204 (Rv0167), Conserved hypothetical integral membrane protein yrbE1A) of the same compound?
Answer: The value was 0.7.

Question: And the “Mean_Ratio (GDI5755_3d vs DMSO_3d)” value (protein A0A0H3M1V2, BCG_0591c (Rv0547c), Possible oxidoreductase)?
Answer: Its value is 0.757.

Question: What about the “Mean Ratio” value (protein A0A0H3M1X4 Probable dehydrogenase/reductase) of the same compound?
Answer: The value was 1.28.

Question: And the “Mean Ratio” value (protein A0A0H3M1Z8 Isoniazid inductible gene protein iniA)?
Answer: The value was 1.28.

Question: And the “Mean Ratio” value (protein A0A0H3M2A5 Carboxymuconolactone decarboxylase-like domain-containing protein)?
Answer: Its value is 1.25.

Question: And the “Mean Ratio” value (protein A0A0H3M2D4 Possible conserved transmembrane protein)?
Answer: The value was 1.26.

Question: What about the “Mean_Ratio (GDI5755_3d vs DMSO_3d)” value (protein A0A0H3M2J1, BCG_0913c (Rv0861c), DNA helicase) of the same compound?
Answer: Its value is 0.746.

Question: What about the “Mean_Ratio (GDI5755_3d vs DMSO_3d)” value (protein A0A0H3M2K9, BCG_0627 (Rv0582), Ribonuclease VapC) of the same compound?
Answer: Its value is 0.74.

Question: What about the “Mean_Ratio (GDI5755_3d vs DMSO_3d)” value (protein A0A0H3M2L9, BCG_0933 (Rv0881), Possible rRNA methyltransferase) of the same compound?
Answer: Its value is 0.7.

Question: What about the “Mean_Ratio (GDI5755_3d vs DMSO_3d)” value (protein A0A0H3M2M6, BCG_0648c (Rv0602c), Two component DNA binding/Transcriptional regulatory protein tcrA) of the same compound?
Answer: Its value is 0.7.

From paper PMC12042115 (mLife, 2025)
